# System: Pediculus capitis
# Assay: Test 3: comparison of Example 1 formulation with 100% cyclomethicone spray, head louse mortality
# Assay type: in vivo
# Conditions: after 24 hours
# Description: A comparison test was also carried out between the formulation of Example 1, a compressed air spray similar to that described in Example 1, but containing 100% of cyclomethicone and a control composed of water.
# Head lice were obtained from volunteer children using the same procedures outlined above for test 1.
# The lice were distributed in groups of twenty onto squares of open mesh nylon gauze as a support substrate. Each group was placed on 90 millimetre plastic Petri dish.
# Each square (4 cm^2) of gauze with the lice attached was then massaged with approx. 5 ml of the formulation to be tested. This was done on the dry gauze so that the formulations could be used neat. The formulations were then left exposed to the air for the specified exposure time.
# After the lice had been exposed to the formulation to be tested for a given exposure time, water was added to the gauze, together with approx. 1 ml of shampoo and the gauze was massaged once more to produce a satisfactory foam. The gauze was then rinsed three times with 250 ml of warm tap water (34° C.) poured over and through the gauze squares. The gauze was then blotted dry with medical wipe tissue and incubated under normal maintenance conditions in clean plastic Petri dishes of appropriate dimensions until the results were recorded. […]
smiles,measurement,value
"CC(=O)Oc1c(C)c(C)c2c(c1C)CCC(C)(CCC[C@H](C)CCC[C@H](C)CCCC(C)C)O2 (stereo partly drawn) [vitamin E acetate, d,l-alpha-Tocopherol acetate]",effect on the lice (inferred from Example 1 vs 100% cyclomethicone spray),significant effect

# Source: patent US20110165094A1, “USE OF VITAMIN E OR DERIVATIVES THEREOF FOR THE CONTROL OF ARTHROPODS” (BIO.LO.GA S.R.L., priority 2008, published 2011)
